Results reported in patent US5591758A, “Organic nitrates, processes for their preparation and their use in the treatment of cardiovascular diseases” (Laboratoires Hoechst, SA, priority 1991, dated 1997).
Structures can show the parent of a compound that is named as a salt.

Tests used:
[1] = tested on: anesthetised pigs; experiment: Haemodynamic effects on anesthetised pigs; assay type: in vivo, pigs ("German land" race)
Protocol: Haemodynamic effects of the compounds according to the invention on anesthetised pigs or dogs
Pigs are of "German land" race (20-26 kg) and are used after fasting overnight.
In the case of pigs, sedation, analgesia and anesthesia are induced by ketamine HCl (20 mg/kg i.m.), methonidate HCl (10 mg/kg i.m.), xylacine HCl (3 mg/kg i.m.) and sodium pentobarbitol (25-30 mg/kg as bolus i.v. or 0.16 mg/kg/min as i.v. perfusion).
The pigs or dogs are placed under artificial respiration in ambient air. Analysis of the blood gases (pO2, pCO2) is carried out at regular intervals and oxygen can be supplied via the respirator, if necessary.
The haemodynamic parameters recorded include the left ventricular pressure (LVP; Millar PC350 Tip catheter inserted via the carotid artery), systemic blood pressure (BPs, BPd; full catheter in a femoral artery), the end pressure of the left ventricular diastole (LVEDP), the ventricular contractility (LVPdp/dtmax) and the heart rate (HR).
The haemodynamic variables are recorded continuously for 1 to 3 hours, as a function of the period of action of the compound.
The effects of the compounds studied are shown as the absolute difference with respect to the base value (bv) measured before administration of the compounds and are shown in Table VII (a,b,c).
An antianginal activity is estimated by a fall in the BPs and the LVEDP (fall in venous return).

[2] = tested on: isolated pulmonary vessel; experiment: Relaxant activity on blood vessels isolated from guinea pigs (pulmonary artery); details: Cavia porcellus; guinea pig pulmonary artery, K+ depolarised, Ca2+ contraction; read-out: IC50 (relaxation of 50%)
Protocol: Determination of the relaxant activity of the compounds according to the invention on blood vessels isolated from guinea pigs.
The pulmonary artery of male guinea pigs (350-500 g) is isolated and cut into spiral tracts (1 mm wide, 15 mm long). […] After having removed the calcium from the tissues (Tyrode without calcium and 0.2 mM EDTA), the tracts are depolarised in the presence of a concentrated solution of K^+ ions (40 mM), which is produced by replacing the NaCl by equimolar amounts of KCl, and a contraction of long duration is then induced by Ca^2+ ions (0.5 mM).
The compounds studied are then introduced into the organ cell in increasing concentrations.
Each compound is tested on at least four vessel spiral tracts.

## O=[N+]([O-])O[C@@H]1CO[C@H]2[C@@H]1OC[C@@H]2O [IS-5-MN, isosorbide 5-mononitrate, reference compound]
[1]; pigs, 1,0 mg/kg i.d.
  BPs, difference to base value: 0 mmHg
  LVRDP, difference to base value: 0 mmHg
[1]; pigs, 3,0 mg/kg i.d.
  BPs (min), period of action: 60 min
  BPs, difference to base value: -5 mmHg
  LVRDP (min), period of action: 60 min
  LVRDP, difference to base value: -3 mmHg
[1]; pigs, 10,0 mg/kg i.d.
  BPs (min), period of action: > 120 min
  BPs, difference to base value: -26 mmHg
  LVRDP (min), period of action: > 120 min
  LVRDP, difference to base value: -3,0 mmHg
[2]
  IC50: > 100 µM

## O=C(CNC(=O)[C@@H]1CSCN1)N[C@H]1CO[C@H]2[C@@H]1OC[C@@H]2O[N+](=O)[O-] [Compound 46, 5-[[2-[[(4-L-Thiazolidinyl)carbonyl]amino]-1oxoethyl]amino]-5-deoxy-2-O-nitro-1,4:3,6-dianhydro-L-iditol monohydrochloride]
[1]; pigs, 3,0 mg/kg i.d.
  BPs (min), period of action: > 120 min
  BPs, difference to base value: -30 mmHg
  LVRDP (min), period of action: > 120 min
  LVRDP, difference to base value: -5,0 mmHg
[2]
  IC50: 38 µM
